# US20260130395A1, “Water Dispersible Botanical Compositions” (Aquila Black Limited, priority 2021, published 2026)
# Test: Stability of cannabinoid compounds and Vitamin E components in Beverage 1 (AB White) by LCMSMS
# Type: physicochemical
# Conditions: for Stability of Plant-Derived Cannabinoid Compounds in AB White, 8° C.: AB White stored at 8° C.; for Stability of Plant-Derived Cannabinoid Compounds in AB White, 21-25° C.: AB White stored at 21-25° C.
smiles,measurement,setting,value
"C=C(C)[C@@H]1CCC(C)=C[C@H]1c1c(O)cc(CCCCC)c(C(=O)O)c1O [CBDA, cannabidiolic acid]","Stability of Plant-Derived Cannabinoid Compounds in AB White, 8° C.",0 days,1.75 µg/mL
same,"Stability of Plant-Derived Cannabinoid Compounds in AB White, 8° C.",1 days,1.72 µg/mL
same,"Stability of Plant-Derived Cannabinoid Compounds in AB White, 8° C.",2 days,1.76 µg/mL
same,"Stability of Plant-Derived Cannabinoid Compounds in AB White, 8° C.",3 days,1.76 µg/mL
same,"Stability of Plant-Derived Cannabinoid Compounds in AB White, 8° C.",5 days,1.71 µg/mL
same,"Stability of Plant-Derived Cannabinoid Compounds in AB White, 8° C.",8 days,1.75 µg/mL
same,"Stability of Plant-Derived Cannabinoid Compounds in AB White, 8° C.",9 days,1.73 µg/mL
same,"Stability of Plant-Derived Cannabinoid Compounds in AB White, 8° C.",10 days,1.76 µg/mL
same,"Stability of Plant-Derived Cannabinoid Compounds in AB White, 8° C.",11 days,1.70 µg/mL
same,"Stability of Plant-Derived Cannabinoid Compounds in AB White, 8° C.",12 days,1.71 µg/mL
same,"Stability of Plant-Derived Cannabinoid Compounds in AB White, 8° C.",15 days,1.74 µg/mL
same,"Stability of Plant-Derived Cannabinoid Compounds in AB White, 8° C.",16 days,1.73 µg/mL
same,"Stability of Plant-Derived Cannabinoid Compounds in AB White, 8° C.",17 days,1.73 µg/mL
same,"Stability of Plant-Derived Cannabinoid Compounds in AB White, 8° C.",18 days,1.76 µg/mL
same,"Stability of Plant-Derived Cannabinoid Compounds in AB White, 8° C.",19 days,1.74 µg/mL
same,"Stability of Plant-Derived Cannabinoid Compounds in AB White, 8° C.",22 days,1.70 µg/mL
same,"Stability of Plant-Derived Cannabinoid Compounds in AB White, 8° C.",23 days,1.76 µg/mL
same,"Stability of Plant-Derived Cannabinoid Compounds in AB White, 8° C.",24 days,1.72 µg/mL
same,"Stability of Plant-Derived Cannabinoid Compounds in AB White, 8° C.",25 days,1.75 µg/mL
same,"Stability of Plant-Derived Cannabinoid Compounds in AB White, 8° C.",26 days,1.75 µg/mL
same,"Stability of Plant-Derived Cannabinoid Compounds in AB White, 8° C.",29 days,1.75 µg/mL
same,"Stability of Plant-Derived Cannabinoid Compounds in AB White, 8° C.",30 days,1.76 µg/mL
same,"Stability of Plant-Derived Cannabinoid Compounds in AB White, 8° C.",60 days,1.70 µg/mL
same,"Stability of Plant-Derived Cannabinoid Compounds in AB White, 8° C.",90 days,1.70 µg/mL
same,"Stability of Plant-Derived Cannabinoid Compounds in AB White, 8° C.",120 days,1.67 µg/mL
same,"Stability of Plant-Derived Cannabinoid Compounds in AB White, 8° C.",150 days,1.71 µg/mL
same,"Stability of Plant-Derived Cannabinoid Compounds in AB White, 8° C.",180 days,1.75 µg/mL
same,"Stability of Plant-Derived Cannabinoid Compounds in AB White, 8° C.",210 days,1.68 µg/mL
same,"Stability of Plant-Derived Cannabinoid Compounds in AB White, 8° C.",240 days,1.70 µg/mL
same,"Stability of Plant-Derived Cannabinoid Compounds in AB White, 8° C.",270 days,1.70 µg/mL
same,"Stability of Plant-Derived Cannabinoid Compounds in AB White, 8° C.",300 days,1.69 µg/mL
same,"Stability of Plant-Derived Cannabinoid Compounds in AB White, 8° C.",330 days,1.70 µg/mL
same,"Stability of Plant-Derived Cannabinoid Compounds in AB White, 8° C.",360 days,1.70 µg/mL
same,"Stability of Plant-Derived Cannabinoid Compounds in AB White, 8° C.",390 days,1.70 µg/mL
same,"Stability of Plant-Derived Cannabinoid Compounds in AB White, 8° C.",420 days,1.67 µg/mL
same,"Stability of Plant-Derived Cannabinoid Compounds in AB White, 8° C.",450 days,1.68 µg/mL
same,"Stability of Plant-Derived Cannabinoid Compounds in AB White, 8° C.",480 days,1.66 µg/mL
same,"Stability of Plant-Derived Cannabinoid Compounds in AB White, 8° C.",510 days,1.61 µg/mL
same,"Stability of Plant-Derived Cannabinoid Compounds in AB White, 8° C.",540 days,1.61 µg/mL
same,"Stability of Plant-Derived Cannabinoid Compounds in AB White, 8° C.",570 days,1.60 µg/mL
same,"Stability of Plant-Derived Cannabinoid Compounds in AB White, 21-25° C.",0 days,1.75 µg/mL
same,"Stability of Plant-Derived Cannabinoid Compounds in AB White, 21-25° C.",1 days,1.76 µg/mL
same,"Stability of Plant-Derived Cannabinoid Compounds in AB White, 21-25° C.",2 days,1.70 µg/mL
same,"Stability of Plant-Derived Cannabinoid Compounds in AB White, 21-25° C.",3 days,1.71 µg/mL
same,"Stability of Plant-Derived Cannabinoid Compounds in AB White, 21-25° C.",5 days,1.69 µg/mL
same,"Stability of Plant-Derived Cannabinoid Compounds in AB White, 21-25° C.",8 days,1.77 µg/mL
same,"Stability of Plant-Derived Cannabinoid Compounds in AB White, 21-25° C.",9 days,1.74 µg/mL
same,"Stability of Plant-Derived Cannabinoid Compounds in AB White, 21-25° C.",10 days,1.73 µg/mL
same,"Stability of Plant-Derived Cannabinoid Compounds in AB White, 21-25° C.",11 days,1.76 µg/mL
same,"Stability of Plant-Derived Cannabinoid Compounds in AB White, 21-25° C.",12 days,1.74 µg/mL
same,"Stability of Plant-Derived Cannabinoid Compounds in AB White, 21-25° C.",15 days,1.69 µg/mL
same,"Stability of Plant-Derived Cannabinoid Compounds in AB White, 21-25° C.",16 days,1.75 µg/mL
same,"Stability of Plant-Derived Cannabinoid Compounds in AB White, 21-25° C.",17 days,1.72 µg/mL
same,"Stability of Plant-Derived Cannabinoid Compounds in AB White, 21-25° C.",18 days,1.75 µg/mL
same,"Stability of Plant-Derived Cannabinoid Compounds in AB White, 21-25° C.",19 days,1.70 µg/mL
same,"Stability of Plant-Derived Cannabinoid Compounds in AB White, 21-25° C.",22 days,1.70 µg/mL
same,"Stability of Plant-Derived Cannabinoid Compounds in AB White, 21-25° C.",23 days,1.73 µg/mL
same,"Stability of Plant-Derived Cannabinoid Compounds in AB White, 21-25° C.",24 days,1.70 µg/mL
same,"Stability of Plant-Derived Cannabinoid Compounds in AB White, 21-25° C.",25 days,1.73 µg/mL
same,"Stability of Plant-Derived Cannabinoid Compounds in AB White, 21-25° C.",26 days,1.75 µg/mL
